Reference: patent US8987195B2 (priority 2012, dated 2015)
Where two headings read alike, the source gives them in different places.

How the values were obtained:
HCV genotype 1b replicon = experiment: HCV replicon assay, genotype 1b replicon EC50; format: cell-based, Hepatitis C virus; settings: HCV replicon, genotype 1b, read-out: EC50 [gt-1b]
Summary of the method: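 Stable neomycin phosphotransferase-encoding replicon cell lines, kept under G418 selection beforehand, were plated with a compound dilution series without G418 and incubated 24-48 hours. Replicon RNA was then quantified, or luciferase activity read. EC50 was calculated as percent of DMSO control by four-parameter fit.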

[1] = biological target: HCV NS3/4A protease genotype 1b (Hepatitis C virus genotype 1b, UniProt P26663); experiment: HCV NS3/4A protease time-resolved fluorescence (TRF) assay, Ki against genotype 1b; format: biochemical; settings: IC50 [gt-1b], NS3/4A protease TRF assay, genotype 1b enzyme 0.2 nM
Summary of the method: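 Ki was converted from fitted IC50 using IC50=Ki(1+[S]/KM) and 25 nM substrate. Protease (genotype 1b 0.2 nM, A156T 0.4 nM, 3a 0.025 nM) and compound were pre-mixed 30 min in pH 7.5 HEPES/NaCl/glycerol/DTT buffer. Cleavage then proceeded 2.5 h at room temperature, detected by time-resolved europium fluorescence (340/615 nm).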

Row | SMILES | EC50 (HCV genotype 1b replicon; Hepatitis C virus, K+ salt) [nM] | IC50 ([1]; K+ salt) [nM] | EC50 (HCV genotype 1b replicon; Hepatitis C virus) [nM] | IC50 [1] [nM] | EC50 (HCV genotype 1b replicon) [nM]
1 | COc1ccc2nc(C)c3c(c2c1)[C@H](F)C[C@]1(C[C@H]2C(=O)N[C@]4(C(=O)NS(=O)(=O)C5(C)CC5)C[C@H]4/C=C\CCCCC[C@H](NC(=O)OCC(C)(C)C)C(=O)N2C1)O3 [Example 371, 2,2-dimethylpropyl [(1′R,2S,6S,12Z,13aS,14aR,16aS)-1′-fluoro-9′-methoxy-5′-methyl-14a-{[(1-methylcyclopropyl)sulfonyl]carbamoyl}-5,16-dioxo-1,1′,2′,5,6,7,8,9,10,11,13a,14,14a,15,16,16a-hexadecahydrospiro[cyclopropa[e]pyrrolo[1,2-a][1,4]diazacyclopentadecine-2,3′-pyrano[2,3-c]quinolin]-6-yl]carbamate] | 1.27 | 0.015 | – | – | –
2 | COc1ccc2nc(C)c3c(c2c1)[C@H](F)C[C@]1(C[C@H]2C(=O)N[C@]4(C(=O)NS(=O)(=O)C5(C)CC5)C[C@H]4/C=C\CCCCC[C@H](NC(=O)OCC(C)C)C(=O)N2C1)O3 [Example 372, 2-methylpropyl [(1′R,2S,6S,12Z,13aS,14aR,16aS)-1′-fluoro-9′-methoxy-5′-methyl-14a-{[(1-methylcyclopropyl)sulfonyl]carbamoyl}-5,16-dioxo-1,1′,2′,5,6,7,8,9,10,11,13a,14,14a,15,16,16a-hexadecahydrospiro[cyclopropa[e]pyrrolo[1,2-a][1,4]diazacyclopentadecine-2,3′-pyrano[2,3-c]quinolin]-6-yl]carbamate] | 2.12 | 0.01 | – | – | –
3 | COc1ccc2nc(C)c3c(c2c1)[C@H](F)C[C@]1(C[C@H]2C(=O)N[C@]4(C(=O)NS(=O)(=O)C5(C)CC5)C[C@H]4/C=C\CCCCC[C@H](NC(=O)OC4CCCC4)C(=O)N2C1)O3 [Example 373, cyclopentyl [(1′R,2S,6S,12Z,13aS,14aR,16aS)-1′-fluoro-9′-methoxy-5′-methyl-14a-{[(1-methylcyclopropyl)sulfonyl]carbamoyl}-5,16-dioxo-1,1′,2′,5,6,7,8,9,10,11,13a,14,14a,15,16,16a-hexadecahydrospiro[cyclopropa[e]pyrrolo[1,2-a][1,4]diazacyclopentadecine-2,3′-pyrano[2,3-c]quinolin]-6-yl]carbamate] | 2.67 | 0.011 | – | – | –
4 | COc1ccc2nc(C)c3c(c2n1)[C@H](F)C[C@]1(C[C@H]2C(=O)N[C@]4(C(=O)NS(=O)(=O)C5(C)CC5)C[C@H]4/C=C\CCCCC[C@H](NC(=O)OC(C)(C)C)C(=O)N2C1)O3 [Example 374, tert-butyl [(2S,6S,10′R,12Z,13aS,14aR,16aS)-10′-fluoro-2′-methoxy-6′-methyl-14a-{[(1-methylcyclopropyl)sulfonyl]carbamoyl}-5,16-dioxo-1,5,6,7,8,9,9′,10,10′,11,13a,14,14a,15,16,16a-hexadecahydrospiro[cyclopropa[e]pyrrolo[1,2-a][1,4]diazacyclopentadecine-2,8′-pyrano[2,3-c][1,5]naphthyridin]-6-yl]carbamate] | – | – | 2.29 | 0.012 | –
5 | Cc1nc2ccccc2c2c1O[C@]1(CC2)C[C@H]2C(=O)N[C@]3(C(=O)NS(=O)(=O)C4(C)CC4)C[C@H]3/C=C\CCCCC[C@H](NC(=O)OC3CCC(F)(F)C3)C(=O)N2C1 (stereo partly drawn) [Example 375, 3,3-difluorocyclopentyl [(2R,6S,12Z,13aS,14aR,16aS)-5′-methyl-14a-{[(1-methylcyclopropyl)sulfonyl]carbamoyl}-5,16-dioxo-1,1′,2′,5,6,7,8,9,10,11,13a,14,14a,15,16,16a-hexadecahydrospiro[cyclopropa[e]pyrrolo[1,2-a][1,4]diazacyclopentadecine-2,3′-pyrano[2,3-c]quinolin]-6-yl]carbamate] | – | – | – | 0.018 | 6.38
6 | Cc1nc2ccccc2c2c1O[C@]1(CC2)C[C@H]2C(=O)N[C@]3(C(=O)NS(=O)(=O)C4(C)CC4)C[C@H]3/C=C\CCCCC[C@H](NC(=O)OC3CCC(F)(F)C3)C(=O)N2C1 (stereo partly drawn) [Example 376, 3,3-difluorocyclopentyl [(2R,6S,12Z,13aS,14aR,16aS)-5′-methyl-14a-{[(1-methylcyclopropyl)sulfonyl]carbamoyl}-5,16-dioxo-1,1′,2′,5,6,7,8,9,10,11,13a,14,14a,15,16,16a-hexadecahydrospiro[cyclopropa[e]pyrrolo[1,2-a][1,4]diazacyclopentadecine-2,3′-pyrano[2,3-c]quinolin]-6-yl]carbamate] | – | – | – | 0.013 | 2.69
7 | COc1ccc2nc(C)c3c(c2n1)[C@H](F)C[C@]1(C[C@H]2C(=O)N[C@]4(C(=O)NS(=O)(=O)C5(C)CC5)C[C@H]4/C=C\CCCCC[C@H](NC(=O)OCC(C)(C)C)C(=O)N2C1)O3 [Example 377, 2,2-dimethylpropyl [(2S,6S,10′R,12Z,13aS,14aR,16aS)-10′-fluoro-2′-methoxy-6′-methyl-14a-{[(1-methylcyclopropyl)sulfonyl]carbamoyl}-5,16-dioxo-1,5,6,7,8,9,9′,10,10′,11,13a,14,14a,15,16,16a-hexadecahydrospiro[cyclopropa[e]pyrrolo[1,2-a][1,4]diazacyclopentadecine-2,8′-pyrano[2,3-c][1,5]naphthyridin]-6-yl]carbamate] | – | – | 2.52 | 0.018 | –
8 | CC(C)(C)OC(=O)N[C@H]1CCCCC/C=C\[C@@H]2C[C@@]2(C(=O)NS(=O)(=O)C2(C)CC2)NC(=O)[C@@H]2C[C@]3(CCc4c(c(C(F)(F)F)nc5ccc(Cl)cc45)O3)CN2C1=O [Example 378, tert-butyl [(2R,6S,12Z,13aS,14aR,16aS)-9′-chloro-14a-{[(1-methylcyclopropyl)sulfonyl]carbamoyl}-5,16-dioxo-5′-(trifluoromethyl)-1,1′,2′,5,6,7,8,9,10,11,13a,14,14a,15,16,16a-hexadecahydrospiro[cyclopropa[e]pyrrolo[1,2-a][1,4]diazacyclopentadecine-2,3′-pyrano[2,3-c]quinolin]-6-yl]carbamate] | – | – | 3.59 | 0.02 | –
9 | Cc1nc2ccccc2c2c1O[C@]1(CC2)C[C@H]2C(=O)N[C@]3(C(=O)NS(=O)(=O)C4(C)CC4)C[C@H]3/C=C\CCCCC[C@H](Nc3nc4ccccc4o3)C(=O)N2C1 [Example 379, (2R,6S,12Z,13aS,14aR,16aS)-6-(1,3-benzoxazol-2-ylamino)-5′-methyl-N-[(1-methylcyclopropyl)sulfonyl]-5,16-dioxo-1,1′,2′,6,7,8,9,10,11,13a,14,15,16,16a-tetradecahydrospiro[cyclopropa[e]pyrrolo[1,2-a][1,4]diazacyclopentadecine-2,3′-pyrano[2,3-c]quinoline]-14a(5H)-carboxamide] | – | – | 1.36 | 0.104 | –
10 | COc1ccc2nc(C)c3c(c2n1)[C@H](F)C[C@]1(C[C@H]2C(=O)N[C@]4(C(=O)NS(=O)(=O)C5(C)CC5)C[C@H]4/C=C\CCCCC[C@H](NC(=O)OC(C)(C)C(F)(F)F)C(=O)N2C1)O3 [Example 380, 1,1,1-trifluoro-2-methylpropan-2-yl [(2S,6S,10′R,12Z,13aS,14aR,16aS)-10′-fluoro-2′-methoxy-6′-methyl-14a-{[(1-methylcyclopropyl)sulfonyl]carbamoyl}-5,16-dioxo-1,5,6,7,8,9,9′,10,10′,11,13a,14,14a,15,16,16a-hexadecahydrospiro[cyclopropa[e]pyrrolo[1,2-a][1,4]diazacyclopentadecine-2,8′-pyrano[2,3-c][1,5]naphthyridin]-6-yl]carbamate] | 5.62 | 0.021 | – | – | –
11 | Cc1nc2cc(F)c(F)cc2c2c1O[C@]1(CC2)C[C@H]2C(=O)N[C@]3(C(=O)NS(=O)(=O)C4(C)CC4)C[C@H]3/C=C\CCCCC[C@H](NC(=O)OC(C)(C)C(F)(F)F)C(=O)N2C1 [Example 381, 1,1,1-trifluoro-2-methylpropan-2-yl [(2R,6S,12Z,13aS,14aR,16aS)-8′,9′-difluoro-5′-methyl-14a-{[(1-methylcyclopropyl)sulfonyl]carbamoyl}-5,16-dioxo-1,1′,2′,5,6,7,8,9,10,11,13a,14,14a,15,16,16a-hexadecahydrospiro[cyclopropa[e]pyrrolo[1,2-a][1,4]diazacyclopentadecine-2,3′-pyrano[2,3-c]quinolin]-6-yl]carbamate] | – | – | 6.74 | 0.04 | –
12 | CC(C)COC(=O)N[C@H]1CCCCC/C=C\[C@@H]2C[C@@]2(C(=O)NS(=O)(=O)C2(C)CC2)NC(=O)[C@@H]2C[C@]3(CCc4c(c(C(F)(F)F)nc5ccc(Cl)cc45)O3)CN2C1=O [Example 383, 2-methylpropyl [(2R,6S,12Z,13aS,14aR,16aS)-9′-chloro-14a-{[(1-methylcyclopropyl)sulfonyl]carbamoyl}-5,16-dioxo-5′-(trifluoromethyl)-1,1′,2′,5,6,7,8,9,10,11,13a,14,14a,15,16,16a-hexadecahydrospiro[cyclopropa[e]pyrrolo[1,2-a][1,4]diazacyclopentadecine-2,3′-pyrano[2,3-c]quinolin]-6-yl]carbamate] | – | – | 38.3 | 0.024 | –
13 | CC1(S(=O)(=O)NC(=O)[C@@]23C[C@H]2/C=C\CCCCC[C@H](NC(=O)OC2CCCC2)C(=O)N2C[C@@]4(CCc5c(c(C(F)(F)F)nc6ccc(Cl)cc56)O4)C[C@H]2C(=O)N3)CC1 [Example 384, cyclopentyl [(2R,6S,12Z,13aS,14aR,16aS)-9′-chloro-14a-{[(1-methylcyclopropyl)sulfonyl]carbamoyl}-5,16-dioxo-5′-(trifluoromethyl)-1,1′,2′,5,6,7,8,9,10,11,13a,14,14a,15,16,16a-hexadecahydrospiro[cyclopropa[e]pyrrolo[1,2-a][1,4]diazacyclopentadecine-2,3′-pyrano[2,3-c]quinolin]-6-yl]carbamate] | – | – | 19.8 | 0.023 | –
